These results are taken from US11152578B2, “Sulfonium salts of DNTT and related compounds as soluble photocleavable precursors for organic semiconductors for use in organic field-effect transistors” (Clap Co., Ltd., priority 2017, dated 2021).

Like-named read-outs stand apart in the source and are kept apart here.

The nature of data set [1]: Solubility in various solvents at 25° C. The settings on record: organic solvent or mixture. Format: physicochemical. As to the method:
The solubility of the compound 1Aa at 25° C. was compared to the solubility of compound 2Aa in various solvents.

For data set [2] the following is noted: background statement, no solvent given; cited from earlier work.
Where [3] appears, read: CH3CN, read-out: solubility in CH3CN.
Where [4] appears, read: CHCl3, read-out: solubility in CHCl3.
[5] abbreviates: DMF, read-out: solubility in DMF.

The solubility is the dissolved amount per volume that the medium holds. In the case of `CCC(C)(C)c1ccc(-[s+]2c3cc4ccccc4cc3c3sc4cc5ccccc5cc4c32)cc1.F[B-](F)(F)F` (stereo not shown) [Compound 1Aa], the solubility in data set [1] (setting [3]) was 5000 µg/mL; in data set [1] (setting [4]), 5000 µg/mL; in data set [1] (setting [5]), 8000 µg/mL.

In the case of `c1ccc2cc3c(cc2c1)sc1c2cc4ccccc4cc2sc31` [Compound 2Aa, dinaphtho[2,3-b:2′,3′-f]thieno[3,2-b]thiophene], the “solubility (in words)” value in data set [2] is “low solubility”. The solubility in data set [1] (setting [3]), in data set [1] (setting [4]) and in data set [1] (setting [5]) was below 1000 µg/mL throughout.
